Molecules are shown by their SMILES. Where two headings read alike, the source gives them in different places.

Our source for the Ki, EC50 and inhibition values is patent US7982042B2, “Thiozanthene derivatives as delta-opioid modulators” (priority 2003, dated 2011).

Experiment [1] concerns the target T1, Rat brain mu opioid receptor (Rattus norvegicus, UniProt P33535).
T1 construct: from tissue; host or cells: forebrain of male Sprague Dawley rats
In words: Rat brain mu opioid receptor binding assay ([3H]DAMGO). As to the method:
• Procedure: Male, Sprague Dawley (150-250 g, VAF, Charles River, Kingston, N.Y.) are killed by CO2, and their brains removed and placed immediately in ice cold Tris HCl buffer (50 mM, pH 7.4). The forebrains are separated from the remainder of the brain by a coronal transection, beginning dorsally at the colliculi and passing ventrally through the midbrain-pontine junction. After dissection, the forebrains are homogenized in Tris buffer in a Teflon®-glass homogenizer. The homogenate is diluted to a concentration of 1 g of forebrain tissue per 80 mL Tris and centrifuged at 39,000×g for 10 min. The pellet is resuspended in the same volume of Tris buffer containing 5 mM MgCl2 with several brief pulses from a Polytron homogenizer. This particulate preparation is used for the mu-opioid binding assays. […] Kd and Ki values are calculated using GraphPad PRISM data analysis program.

The target of experiment [2] is T2, Rat brain delta opioid receptor (Rattus norvegicus, UniProt P33533).
T2 construct: from tissue; host or cells: rat brain
T2 sequence (P33533 whole entry): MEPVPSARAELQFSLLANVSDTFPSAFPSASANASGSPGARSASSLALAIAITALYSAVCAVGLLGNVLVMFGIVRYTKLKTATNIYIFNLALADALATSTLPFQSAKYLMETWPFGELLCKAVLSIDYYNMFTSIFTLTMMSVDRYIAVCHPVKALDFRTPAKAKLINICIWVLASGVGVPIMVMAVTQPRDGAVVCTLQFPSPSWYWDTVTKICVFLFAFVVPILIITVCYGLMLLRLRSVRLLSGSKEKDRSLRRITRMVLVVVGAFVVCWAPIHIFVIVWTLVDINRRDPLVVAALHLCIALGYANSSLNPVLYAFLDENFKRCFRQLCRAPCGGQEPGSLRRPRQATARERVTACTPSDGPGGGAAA
Briefly: Rat brain delta opioid receptor binding.

For experiment [3], the target named is T3, delta opioid receptor (Mus musculus, UniProt P32300).
T3 construct: host or cells: NG108-15 cells (membranes, purchased)
T3 sequence (P32300 whole entry): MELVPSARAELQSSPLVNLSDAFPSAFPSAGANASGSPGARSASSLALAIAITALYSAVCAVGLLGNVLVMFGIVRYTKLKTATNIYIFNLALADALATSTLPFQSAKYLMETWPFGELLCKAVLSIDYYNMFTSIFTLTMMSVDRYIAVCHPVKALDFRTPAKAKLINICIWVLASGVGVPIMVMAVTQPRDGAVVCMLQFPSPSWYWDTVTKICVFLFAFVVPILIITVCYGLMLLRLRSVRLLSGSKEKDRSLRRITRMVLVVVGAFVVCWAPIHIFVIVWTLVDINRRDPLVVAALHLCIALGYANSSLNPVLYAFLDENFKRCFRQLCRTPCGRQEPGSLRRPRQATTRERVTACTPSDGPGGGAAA
In words: [35S]GTPγS binding assay in NG108-15 cell membrane. In kind it is biochemical. As to the method:
NG108-15 cell membranes were purchased from Applied Cell Sciences (Rockville, Md.). An 8 mg/mL portion of membrane protein was suspended in 10 mM TRIS-HC pH 7.2, 2 mM EDTA, 10% sucrose.
Membranes were maintained at 4-8° C. A 1 mL portion of membranes was added into 10 mL cold binding assay buffer. The assay buffer contained 50 mM Tris, pH 7.6, 5 mM MgCl2, 100 mM NaCl, 1 mM DTT and 1 mM EGTA. The membrane suspension was homogenized with a Polytron for 2 times and centrifuged at 3000 rpm for 10 min. The supernatent was then centrifuged at 18,000 rpm for 20 min. The pellet was saved in a tube and 10 ml assay buffer was added into the tube. The pellet and buffer were mixed with a Polytron.
The pellet membranes (75 μg/ml) were preincubated with SPA (10 mg/ml) at 25° C. for 45 min in the assay buffer. […] GTPγS in the same Tris buffer containing 100 μM GDP in total volume of 200 μl. Increasing concentrations of receptor agonists were used to stimulate [^35S] GTPγS binding. The basal binding was tested in the absent agonists and no specific binding was tested in the present 10 μM unlabeled GTPγS. The data were analyzed on a Top counter.
% of Basal=(stimulate−non specific)*100/(basal−non specific). EC50 values are calculated using a Prism program.

Experiment [4] deals with T4, human delta opioid receptor (Homo sapiens, UniProt P41143).
T4 construct: purchased Receptor Biology, Inc. (Baltimore, Md.); host or cells: CHO cells expressing the human delta receptor (membranes)
T4 sequence (P41143 whole entry): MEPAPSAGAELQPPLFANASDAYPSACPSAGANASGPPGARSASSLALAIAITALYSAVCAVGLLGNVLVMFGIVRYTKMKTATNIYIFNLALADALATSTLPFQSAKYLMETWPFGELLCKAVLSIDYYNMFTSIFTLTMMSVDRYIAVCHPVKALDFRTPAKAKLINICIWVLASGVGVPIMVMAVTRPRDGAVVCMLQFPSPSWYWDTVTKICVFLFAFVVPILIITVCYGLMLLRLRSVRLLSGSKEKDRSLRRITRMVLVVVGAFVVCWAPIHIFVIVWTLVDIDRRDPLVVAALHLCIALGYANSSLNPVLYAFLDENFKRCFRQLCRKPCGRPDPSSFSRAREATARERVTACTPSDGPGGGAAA
Briefly: [35S]GTPγS binding assay in CHO-hδ cell membranes. In kind it is biochemical. The method, then: CHO-hδ cell membranes are purchased from Receptor Biology, Inc. (Baltimore, Md.). 10 mg/ml of membrane protein is suspended in 10 mM TRIS-HC pH 7.2, 2 mM EDTA, 10% sucrose.
Membranes are maintained at 4-8° C. 1 ml of membranes is added into 15 ml cold binding assay buffer. The assay buffer contained 50 mM HEPES, pH 7.6, 5 mM MgCl2, 100 mM NaCl, 1 mM DTT and 1 mM EDTA. The membrane suspension is homogenized with a Polytron 2 times and centrifuged at 3000 rpm for 10 min. The supernatant is then centrifuged at 18,000 rpm for 20 min. The pellet is saved in a tube and 10 ml assay buffer is added into the tube. The pellet and buffer are mixed with a Polytron.
The pellet membranes (20 μg/ml) are preincubated with SPA (10 mg/ml) at 25° C. for 45 min in the assay buffer. The SPA (5 mg/ml) coupled with membranes (10 μg/ml) is then incubated with 0.5 nM [^35S]GTPgS in the same HEPES buffer containing 50 μM GDP in total volume of 200 μl. Increasing concentrations of receptor agonists are used to stimulate [^35S]GTPgS binding. The basal binding is tested in the absence of agonists and non-specific binding is tested in the presence of 10 μM unlabeled GTP S. The data are analyzed on a Top counter.

Experiment [5] deals with T5, human mu opioid receptor (Homo sapiens, UniProt P35372).
T5 construct: purchased Receptor Biology, Inc. (Baltimore, Md.); host or cells: CHO cells expressing the human mu receptor (membranes)
T5 sequence (P35372 whole entry): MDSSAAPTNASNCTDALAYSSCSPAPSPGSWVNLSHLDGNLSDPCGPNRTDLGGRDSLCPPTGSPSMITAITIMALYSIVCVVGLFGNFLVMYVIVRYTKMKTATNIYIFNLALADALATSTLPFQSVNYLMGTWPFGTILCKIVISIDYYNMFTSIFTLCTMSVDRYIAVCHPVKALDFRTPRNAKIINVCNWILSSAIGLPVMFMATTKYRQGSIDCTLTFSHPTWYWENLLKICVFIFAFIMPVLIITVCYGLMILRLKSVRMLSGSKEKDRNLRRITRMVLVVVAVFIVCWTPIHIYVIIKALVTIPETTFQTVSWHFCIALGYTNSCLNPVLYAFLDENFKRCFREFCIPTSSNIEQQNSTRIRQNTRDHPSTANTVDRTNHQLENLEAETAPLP
In words: [35S]GTPγS binding assay in CHO-hμ cell membranes. In kind it is biochemical. The conditions noted are these: inhibition relative to 1 uM DAMGO, read-out: hMOR GTPγS % I @10 μM. As to the method: CHO-hμ cell membranes are purchased from Receptor Biology, Inc. (Baltimore, Md.). About 10 mg/ml of membrane protein is suspended in 10 mM TRIS-HC pH 7.2, 2 mM EDTA, 10% sucrose.
Membranes are maintained at 4-8° C. 1 ml of membranes is added into 15 ml cold binding assay buffer. The assay buffer contains 50 mM HEPES, pH 7.6, 5 mM MgCl2, 100 mM NaCl, 1 mM DTT and 1 mM EDTA. The membrane suspension is homogenized with a Polytron 2 times and centrifuged at 3000 rpm for 10 min. The supernatant is then centrifuged at 18,000 rpm for 20 min. The pellet is saved in a tube and 10 ml assay buffer is added to the tube. The pellet and buffer are mixed with a Polytron.
The pellet membranes (20 μg/ml) are preincubated with SPA (10 mg/ml) at 25 C′ for 45 min in the assay buffer. The SPA (5 mg/ml) coupled with membranes (10 μg/ml) is then incubated with 0.5 nM [^35S]GTPgS in the same HEPES buffer containing 50 μM GDP in total volume of 200 μl. Increasing concentrations of receptor agonists are used to stimulate [^35S]GTPgS binding. The basal binding is tested in the absence of agonists and non-specific binding is tested in the present 10 μM unlabeled GTPγS. The data are analyzed on a Top counter.
% of Basal=(stimulate−non-specific)*100/(basal−non specific). % inhibition value values are calculated using a formula, % Inhibition=(% Basal of 1 uM DAMGO−% Basal of compound)*100/(% Basal of 1 uM DAMGO−100)

Where [6] appears, read: DOR GTPγS EC50, delta opioid receptor GTPγS functional assay.
Where [7] appears, read: human delta opioid receptor GTPγS functional assay, read-out: hDOR GTPγS EC50.
Setting [8] is: hDOR GTPγS EC50, human delta opioid receptor GTPγS functional assay.

T1 sequence (P33535 whole entry): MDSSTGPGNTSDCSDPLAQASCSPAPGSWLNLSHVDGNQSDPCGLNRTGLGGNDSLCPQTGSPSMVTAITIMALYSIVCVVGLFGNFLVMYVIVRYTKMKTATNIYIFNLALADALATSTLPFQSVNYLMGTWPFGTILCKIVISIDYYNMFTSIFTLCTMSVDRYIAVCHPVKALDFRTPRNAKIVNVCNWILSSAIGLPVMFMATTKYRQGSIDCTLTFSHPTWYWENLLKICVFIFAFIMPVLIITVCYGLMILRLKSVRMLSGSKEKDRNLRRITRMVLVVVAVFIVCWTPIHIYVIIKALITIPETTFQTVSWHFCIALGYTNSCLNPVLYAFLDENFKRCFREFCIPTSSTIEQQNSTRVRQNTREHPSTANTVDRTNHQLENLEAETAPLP

Consider `CCNC(=O)c1ccc2c(c1)Oc1ccccc1C2=C1CC2CCC(C1)N2` (single isomer, unassigned) [Compound 55], for which the inhibitory constant (Ki) in experiment [1] (read-out: rMOR Ki) was determined as 1860 nM; in experiment [2] (rDOR Ki) it was 66.5 nM. Besides, the EC50 in experiment [3] (delta opioid receptor GTPγS functional assay, read-out: DOR GTPγS EC50) was more than 1000 nM.

Take `CCN(CC)C(=O)c1ccc2c(c1)Sc1ccccc1C2=C1CC2CCC(C1)N2` (single isomer, unassigned) [Compound 61, 9-(8-Aza-bicyclo[3.2.1]oct-3-ylidene)-9H-thioxanthene-3-carboxylic acid diethylamide]: the Ki in experiment [1] (rMOR Ki) was 7180 nM; in experiment [2] (rDOR Ki) it was 133 nM. In experiment [3] (setting [6]), this molecule gave a concentration giving a half-maximal response (EC50) of 188 nM.

Turning to `CCN(CC)C(=O)c1ccc2c(c1)Sc1ccccc1C2=C1CC2CCC(C1)N2` (single isomer, unassigned) [Compound 62, 9-(8-Aza-bicyclo[3.2.1]oct-3-ylidene)-9H-thioxanthene-3-carboxylic acid diethylamide], the Ki is 739 nM in experiment [1] (rMOR Ki) and 2.96 nM in experiment [2] (rDOR Ki). Also, the half-maximal effective concentration (EC50) in experiment [3] (setting [6]) came out at 8.35 nM.

Regarding `CCN(CC)C(=O)c1ccc2c(c1)Oc1ccccc1C2=C1CCN(C(=N)N)CC1` [Compound 31, 9-(1-Carbamimidoyl-piperidin-4-ylidene)-9H-xanthene-3-carboxylic acid diethylamide], the 50% effective concentration (EC50) in experiment [4] (setting [7]) came out at 253 nM. The inhibition constant Ki in experiment [1] (read-out: rMOR Ki) was determined as 564 nM; in experiment [2] (rDOR Ki), 29.8 nM. In addition, the inhibition at 10 µM in experiment [5] was determined as 14%.

As for `CCN(CC)C(=O)c1ccc2c(c1)Oc1ccccc1C2=C1CCN(CCO)CC1` [Compound 35, 9-[1-(2-Hydroxy-ethyl)-piperidin-4-ylidene]-9H-xanthene-3-carboxylic acid diethylamide], the EC50 in experiment [4] (setting [7]) is 271 nM. Moreover, the results for the inhibitory constant (Ki) in experiment [1] (read-out: rMOR Ki) and in experiment [2] (rDOR Ki) were more than 10000 nM and 7.01 nM, respectively. Moreover, in experiment [5], the inhibition at 10 µM worked out at 17%.

With `CCN(CC)C(=O)c1ccc2c(c1)Oc1ccccc1C2=C1CCN(C=Nc2ccccc2)CC1` [Compound 36, 9-(1-Phenyliminomethyl-piperidin-4-ylidene)-9H-xanthene-3-carboxylic acid diethylamide], the 50% effective concentration (EC50) in experiment [4] (setting [8]) was found to be 42.5 nM. For the same molecule, the Ki in experiment [1] (rMOR Ki) was more than 10000 nM; in experiment [2] (rDOR Ki), 0.79 nM. In experiment [5], the inhibition at 10 µM was 14%.

`CCN(CC)C(=O)c1ccc2c(c1)Oc1ccccc1C2=C1CCN(C=S)CC1` [Compound 37, 9-(1-Thioformyl-piperidin-4-ylidene)-9H-xanthene-3-carboxylic acid diethylamide] displayed a half-maximal effective concentration (EC50) in experiment [4] (setting [8]) of 921 nM. The Ki was more than 10000 nM in experiment [1] (rMOR Ki) and 2.02 nM in experiment [2] (rDOR Ki). For the same molecule, the inhibition at 10 µM in experiment [5] amounted to 5%.

With `CCN(CC)C(=O)c1ccc2c(c1)Oc1ccccc1C2C1CCNCC1` (stereo not shown) [Compound 42, 9-Piperidin-4-yl-9H-xanthene-3-carboxylic acid diethylamide], in experiment [4] (setting [7]), the 50% effective concentration (EC50) was found to be 266 nM. For the same molecule, the Ki in experiment [1] (read-out: rMOR Ki) was 8790 nM; in experiment [2] (read-out: rDOR Ki) it was 14.7 nM. In experiment [5], the inhibition at 10 µM is 4%.

In experiment [4] (setting [8]), `CCN(CC)C(=O)c1ccc2c(c1)Oc1ccccc1C2=C1CC2CCC(C1)N2Cc1ccccn1` [Compound 44] came in with an EC50 of 0.873 nM. The values for the inhibitory constant (Ki) in experiment [1] (rMOR Ki) and in experiment [2] (rDOR Ki) were 77.2 nM and 0.15 nM, respectively. For the same molecule, the inhibition at 10 µM in experiment [5] is 28%.

Consider `CCN(CC)C(=O)c1ccc2c(c1)Sc1ccccc1C2=C1CC2CCC(C1)N2Cc1ccc2c(c1)OCO2` [Compound 47, 9-(8-Benzo[1,3]dioxol-5-ylmethyl-8-aza-bicyclo[3.2.1]oct-3-ylidene)-9H-thioxanthene-3-carboxylic acid diethylamide], for which the EC50 in experiment [4] (setting [7]) worked out at 125 nM. The results for the Ki in experiment [1] (rMOR Ki) and in experiment [2] (rDOR Ki) were 48.3 nM and 4.5 nM, respectively. In addition, in experiment [5], the inhibition at 10 µM is 59.2%.

As for `CCN(CC)C(=O)c1ccc2c(c1)Oc1c(OC)cccc1C2=C1CC2CCC(C1)N2` [Compound 68, 9-(8-Aza-bicyclo[3.2.1]oct-3-ylidene)-5-methoxy-9H-xanthene-3-carboxylic acid diethylamide], the Ki in experiment [1] (rMOR Ki) is 1290 nM; in experiment [2] (rDOR Ki) it was 0.74 nM. Further, the EC50 in experiment [3] (setting [6]) turned out to be 22 nM.

`CCN(CC)C(=O)c1ccc2c(c1)Oc1ccc(F)cc1C2=C1CC2CCC(C1)N2` [Compound 69]: the Ki in experiment [1] (rMOR Ki) turned out to be 5830 nM; in experiment [2] (rDOR Ki), 4.99 nM. For the same molecule, it took 126 nM to reach a half-maximal effect in experiment [3] (setting [6]) (EC50).

Regarding `CCN(CC)C(=O)c1ccc2c(c1)Oc1cc(O)ccc1C2=C1CC2CCC(C1)N2` [Compound 76, 9-(8-Aza-bicyclo[3.2.1]oct-3-ylidene)-6-hydroxy-9H-xanthene-3-carboxylic acid diethylamide], the results for the inhibitory constant (Ki) in experiment [1] (rMOR Ki) and in experiment [2] (rDOR Ki) were 285 nM and 1.7 nM, respectively. In experiment [3] (setting [6]), this molecule registered an EC50 of 5.91 nM.

Consider `CC(C)N(C)C(=O)c1ccc2c(c1)Oc1ccccc1C2=C1CC2CCC(C1)N2` [Compound 92, 9-(8-Aza-bicyclo[3.2.1]oct-3-ylidene)-9H-xanthene-3-carboxylic acid isopropyl-methyl-amide], for which the Ki in experiment [1] (rMOR Ki) and in experiment [2] (rDOR Ki) was 2.09 nM throughout. In experiment [3] (setting [6]), a half-maximal response (EC50) required 55.3 nM.

Take `CCN(CC)C(=O)c1ccc2c(c1)Oc1c(Br)cccc1C2=C1CC2CCC(C1)N2` [Compound 94, 9-(8-Aza-bicyclo[3.2.1]oct-3-ylidene)-5-bromo-9H-xanthene-3-carboxylic acid diethylamide]: the Ki in experiment [1] (rMOR Ki) was 674 nM; in experiment [2] (rDOR Ki) it was 2.28 nM. For the same molecule, the EC50 in experiment [3] (setting [6]) is 14.1 nM.

Turning to `CCN(CC)C(=O)c1ccc2c(c1)Oc1c(cccc1-c1ccncc1)C2=C1CC2CCC(C1)N2` [Compound 96, 9-(8-Aza-bicyclo[3.2.1]oct-3-ylidene)-5-pyridin-4-yl-9H-xanthene-3-carboxylic acid diethylamide], the Ki was 4220 nM in experiment [1] (rMOR Ki) and 1.69 nM in experiment [2] (rDOR Ki). The same molecule returned an EC50 in experiment [3] (setting [6]) of 35.3 nM.
